Columns and labels:
Test in all cases: Kinase activity inhibition assay (HTRF TK Kit), selectivity
Assay type in all cases: biochemical
[1] = target: T1, TEC (Homo sapiens, UniProt P42680)
T1 construct: purchased Carna 08-182
T1 sequence (P42680 1-631): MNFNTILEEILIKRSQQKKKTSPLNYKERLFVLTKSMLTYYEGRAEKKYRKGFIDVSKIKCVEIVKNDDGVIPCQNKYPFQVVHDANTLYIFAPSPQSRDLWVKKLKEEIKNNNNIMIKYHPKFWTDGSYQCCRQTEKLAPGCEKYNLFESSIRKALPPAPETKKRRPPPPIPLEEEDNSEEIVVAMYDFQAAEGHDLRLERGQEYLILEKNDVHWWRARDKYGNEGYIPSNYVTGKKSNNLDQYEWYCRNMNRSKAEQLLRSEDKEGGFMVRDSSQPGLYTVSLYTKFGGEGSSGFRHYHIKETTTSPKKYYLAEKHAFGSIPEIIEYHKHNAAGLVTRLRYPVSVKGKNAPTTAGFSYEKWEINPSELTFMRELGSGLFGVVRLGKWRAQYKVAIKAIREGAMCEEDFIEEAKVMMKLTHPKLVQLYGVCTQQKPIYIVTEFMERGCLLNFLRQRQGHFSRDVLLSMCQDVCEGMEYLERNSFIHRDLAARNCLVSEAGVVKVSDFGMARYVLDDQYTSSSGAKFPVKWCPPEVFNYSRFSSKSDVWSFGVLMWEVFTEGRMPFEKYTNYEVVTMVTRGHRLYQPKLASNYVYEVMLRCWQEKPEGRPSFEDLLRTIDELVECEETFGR
Description: (§1) In this assay, the HTRF TK Kit (Catalog No. 62TK0PEC) provided by Cisbio was used to detect the inhibitory activity of compounds on BTK kinase, BTK T474I kinase and BTK C481 S kinase and the selectivity of compounds relative to EGFR, ITK and TEC kinases.
(§2) Reagents and consumables: BTK kinase (Invitrogen, Catalog No. PV3587), BTK C481S (Carna, Product No. 08-547), BTK T474I(SignalChem Product No. B10-12HH), ITK (Cama, Product No. 08-181), EGFR (Cama, Product No. 08-115), TEC (Carna, Product No. 08-182), HTRF-TK kit (Cisbio, Product No. 62TK0PEC), MgCl2 (Sigma, Product No. M1028), MnCl2 (Sigma, Product No. M1787), DTT (Sigma, Product No. D0632), ATP (Sigma, Product No. A7699-1g), DMSO (Sigma, Product No. D2650), 384-well plate (PE, Product No. 6008280).
(§3) The entire operation steps were carried out on ice, and the total reaction volume was 10µL. A compound (4µL), substrate and ATP (4µL), and kinase (2µL) were added in sequence to a 384-well plate, and the plate was shaken for 30 seconds. The mixture was reacted at room temperature for an appropriate time, and then the detection reagent was added. The resulting mixture was reacted at room temperature for 1 hour, and then the plate was assayed with a microplate reader. The specific steps were as follows: • a) a 1 × kinase buffer solution required for the kinase assay was calculated according to the amount of the test compound, and prepared as needed; • b) 2.5 × working concentration of a compound was prepared, 100-fold gradient concentration solutions of a compound were diluted by 40 × to the desired concentration, respectively, mixed well, and added to each well at 4 µL per well; • c) 5 × working concentration of the substrate and ATP were prepared, mixed in a ratio of 1:1 before being added to the 384-well plate, and added to each well at 4 µL per well; • d) 5 × working concentration of a kinase was prepared, 2 µL of which was added to each well; • e) the plate was shaken on a microplate shaker for 30 seconds, sealed with a sealing membrane, and the mixture was reacted at room temperature for an appropriate time; • f) 4 × working concentration of streptavidin XL-665 and TK antibody-cryptate compound were prepared, mixed in a ratio of 1:1 before being added to the 384-well plate, and added to each well at 10 µL per well; • g) the mixture was reacted at room temperature for 1 hour, and then the plate was read; • h) the wells with only substrate, ATP and 1% DMSO added but no kinase were blank control wells, and the wells with only substrate, ATP, 1% DMSO and kinase were positive control wells.
(§4) Readings: The values of 620 nm (cryptate) and 665 nm (XL665) were read with a BioTek Synerg Neo2 microplate reader, the ratio of 665/620 for each well was calculated, and the data were exported.
(§5) Data analysis: IC50 was calculated using GraphPad Prism 7.0 software.
(§6) The IC50 (half-maximal inhibitory concentration) of the compound was obtained using the following nonlinear fitting formula: Y = Bottom + (Top−Bottom)/(1+10^(∧)((LogIC50−X)*HillSlope)) [formula] • X: Log value of the compound concentration • Y: Inhibition rate (% inhibition) • Top: Maximum response • Bottom: Baseline response • HillSlope: Slope of the curve
(§7) The formula for calculating kinase inhibition rate (inhibition rate %) was: [formula]

[2] = target: T2, ITK (Homo sapiens, UniProt Q08881)
T2 construct: purchased Carna 08-181
T2 sequence (Q08881 1-620): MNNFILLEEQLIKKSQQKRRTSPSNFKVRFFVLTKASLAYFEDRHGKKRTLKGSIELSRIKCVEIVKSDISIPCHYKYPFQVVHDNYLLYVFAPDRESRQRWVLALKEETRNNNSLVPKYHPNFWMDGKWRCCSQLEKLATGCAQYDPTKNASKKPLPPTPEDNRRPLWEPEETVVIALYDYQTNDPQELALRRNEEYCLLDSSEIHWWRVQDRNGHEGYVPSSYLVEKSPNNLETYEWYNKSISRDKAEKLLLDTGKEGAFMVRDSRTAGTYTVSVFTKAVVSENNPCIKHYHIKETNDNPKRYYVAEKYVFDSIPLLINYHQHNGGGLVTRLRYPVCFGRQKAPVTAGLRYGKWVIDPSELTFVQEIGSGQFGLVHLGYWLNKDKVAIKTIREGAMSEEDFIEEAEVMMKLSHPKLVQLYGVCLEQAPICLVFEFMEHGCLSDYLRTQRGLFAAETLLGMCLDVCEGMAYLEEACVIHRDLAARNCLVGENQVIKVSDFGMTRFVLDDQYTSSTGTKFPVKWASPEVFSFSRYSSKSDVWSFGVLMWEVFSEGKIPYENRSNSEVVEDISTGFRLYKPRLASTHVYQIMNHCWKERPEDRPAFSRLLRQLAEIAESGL
Description: as §1, §2, §3, §4, §5, §6, §7

[3] = target: T3, EGFR (Homo sapiens, UniProt P00533)
T3 construct: purchased Carna 08-115
Description: as §1, §2, §3, §4, §5, §6, §7

T3 sequence (P00533 669-1210 limits assumed): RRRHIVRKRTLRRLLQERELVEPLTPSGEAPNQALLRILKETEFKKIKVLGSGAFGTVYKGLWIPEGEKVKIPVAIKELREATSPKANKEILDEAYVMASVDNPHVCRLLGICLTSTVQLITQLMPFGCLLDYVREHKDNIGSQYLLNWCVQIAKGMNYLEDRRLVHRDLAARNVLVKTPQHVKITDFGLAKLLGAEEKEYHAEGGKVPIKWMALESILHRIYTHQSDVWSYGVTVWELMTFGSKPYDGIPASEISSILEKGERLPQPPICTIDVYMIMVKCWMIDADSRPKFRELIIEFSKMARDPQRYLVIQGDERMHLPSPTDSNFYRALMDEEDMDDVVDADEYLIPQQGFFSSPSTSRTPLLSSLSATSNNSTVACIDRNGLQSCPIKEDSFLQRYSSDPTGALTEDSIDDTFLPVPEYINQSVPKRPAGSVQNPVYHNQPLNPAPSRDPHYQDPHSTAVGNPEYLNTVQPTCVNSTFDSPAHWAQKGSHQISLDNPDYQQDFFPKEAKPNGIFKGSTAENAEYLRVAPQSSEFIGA

| Structure (SMILES) | IC50 [1] [µM] | IC50 [2] [µM] | IC50 [3] [µM] |
| --- | --- | --- | --- |
| COc1ccc(F)cc1C(=O)NCc1ccc(-c2ncc(-c3ccc(OC(F)(F)F)cn3)c3[nH]nc(N)c23)cc1 [Example 41, N-(4-(3-amino-7-(5-(trifluoromethoxy)pyridin-2-yl)-1H-pyrazolo[4,3-c]pyridin-4-yl)benzyl)-5-fluoro-2-methoxybenzamide] | 0.005 to 0.05 | 0.05 to 0.5 | 0.05 to 0.5 |
| COc1ccc(F)cc1C(=O)NCc1ccc(-c2nc(C(C)C(F)(F)F)c(-c3ncccn3)c3[nH]nc(N)c23)cc1 (stereo not drawn) [Example 7, N-(4-(3-amino-7-(pyrimidin-2-yl)-6-(1,1,1-trifluoropropan-2-yl)-1H-pyrazolo[4,3-c]pyridin-4-yl)benzyl)-5-fluoro-2-methoxybenzamide] | 0.005 to 0.05 | > 0.5 | 0.05 to 0.5 |
| COc1ccc(F)cc1C(=O)NCc1ccc(-c2nc(C3CCSCC3)cc3[nH]nc(N)c23)cc1 [Example 91, N-(4-(3-amino-6-(tetrahydro-2H-thiopyran-4-yl)-1H-pyrazolo[4,3-c]pyridin-4-yl)benzyl)-5-fluoro-2-methoxybenzamide] | 0.05 to 0.5 | > 0.5 | 0.05 to 0.5 |
| COc1ccc(F)cc1C(=O)NCc1ccc(-c2ncc(-c3ccc(CN4CCN(C)CC4)cn3)c3[nH]nc(N)c23)cc1 [Example 68, N-(4-(3-amino-7-(5-((4-methylpiperazin-1-yl)methyl)pyridin-2-yl)-1H-pyrazolo[4,3-c]pyridin-4-yl)benzyl)-5-fluoro-2-methoxybenzamide] | 0.005 to 0.05 | 0.05 to 0.5 | 0.005 to 0.05 |
| COc1ccc(F)cc1C(=O)NCc1ccc(-c2nc(C(C)C(F)(F)F)c(-c3ccn(C)n3)c3[nH]nc(N)c23)cc1 (single isomer, unassigned) [Example 6-1, N-(4-(3-amino-7-(1-methyl-1H-pyrazol-3-yl)-6-(1,1,1-trifluoropropan-2-yl)-1H-pyrazolo[4,3-c]pyridin-4-yl)benzyl)-5-fluoro-2-methoxybenzamide] | 0.05 to 0.5 | > 0.5 | > 0.5 |
| COc1ccc(F)cc1C(=O)NCc1ccc(-c2nc([C@H]3CC[C@H](CO)CC3)cc3[nH]nc(N)c23)cc1 [Example 117, N-(4-(3-amino-6-((1r,4r)-4-(hydroxymethyl)cyclohexyl)-1H-pyrazolo[4,3-c]pyridin-4-yl)benzyl)-5-fluoro-2-methoxybenzamide] | 0.05 to 0.5 | > 0.5 | 0.005 to 0.05 |
| COc1ccc(F)cc1C(=O)NCc1ccc(-c2ncc(-c3nc4cccnc4s3)c3[nH]nc(N)c23)cc1 [Example 100, N-(4-(3-amino-7-(thiazolo[5,4-b]pyridin-2-yl)-1H-pyrazolo[4,3-c]pyridin-4-yl)benzyl)-5-fluoro-2-methoxybenzamide] | 0.005 to 0.05 | > 0.5 | 0.05 to 0.5 |
| CNC(=O)Cn1ccc(-c2cnc(-c3ccc(CNC(=O)c4cc(F)ccc4OC)cc3)c3c(N)n[nH]c23)n1 [Example 26, N-(4-(3-amino-7-(1-(2-(methylamino)-2-oxoethyl)-1H-pyrazol-3-yl)-1H-pyrazolo[4,3-c]pyridin-4-yl)benzyl)-5-fluoro-2-methoxybenzamide] | 0.05 to 0.5 | > 0.5 | 0.05 to 0.5 |
| COc1ccc(F)cc1C(=O)NCc1ccc(-c2nc(C(C)C(F)(F)F)c(-c3ncccn3)c3[nH]nc(N)c23)cc1 (single isomer, unassigned) [Example 7-2, N-(4-(3-amino-7-(pyrimidin-2-yl)-6-(1,1,1-trifluoropropan-2-yl)-1H-pyrazolo[4,3-c]pyridin-4-yl)benzyl)-5-fluoro-2-methoxybenzamide] | 0.05 to 0.5 | > 0.5 | > 0.5 |
| COc1ccc(F)cc1C(=O)NCc1ccc(-c2ncc(-c3ccncc3)c3[nH]nc(N)c23)cc1 [Example 106, N-(4-(3-amino-7-(pyridin-4-yl)-1H-pyrazolo[4,3-c]pyridin-4-yl)benzyl)-5-fluoro-2-methoxybenzamide] | > 0.5 | > 0.5 | > 0.5 |
| COc1ccc(F)cc1C(=O)NCc1ccc(-c2ncc(-c3ccc4nccn4n3)c3[nH]nc(N)c23)cc1 [Example 51, N-(4-(3-amino-7-(imidazo[1,2-b]pyridazin-6-yl)-1H-pyrazolo[4,3-c]pyridin-4-yl)benzyl)-5-fluoro-2-methoxybenzamide] | 0.005 to 0.05 | > 0.5 | 0.05 to 0.5 |
| COc1ccc(F)cc1C(=O)NCc1ccc(-c2ncc(-c3nc4cnccn4n3)c3[nH]nc(N)c23)cc1 [Example 57, N-(4-(7-([1,2,4]triazolo[1,5-a]pyrazin-2-yl)-3-amino-1H-pyrazolo[4,3-c]pyridin-4-yl)benzyl)-5-fluoro-2-methoxybenzamide] | 0.05 to 0.5 | > 0.5 | 0.05 to 0.5 |
| COc1ccc(F)cc1C(=O)NCc1ccc(-c2ncc(-c3cccnc3)c3[nH]nc(N)c23)cc1 [Example 105, N-(4-(3-amino-7-(pyridin-3-yl)-1H-pyrazolo[4,3-c]pyridin-4-yl)benzyl)-5-fluoro-2-methoxybenzamide] | > 0.5 | > 0.5 | > 0.5 |
| COc1ccc(F)cc1C(=O)NCc1ccc(-c2ncc(-c3ccc(OCCN(C)C)cn3)c3[nH]nc(N)c23)cc1 [Example 60, N-(4-(3-amino-7-(5-(2-(dimethylamino)ethoxy)pyridin-2-yl)-1H-pyrazolo[4,3-c]pyridin-4-yl)benzyl)-5-fluoro-2-methoxybenzamide] | 0.005 to 0.05 | 0.05 to 0.5 | 0.005 to 0.05 |
| COc1ccc(F)cc1C(=O)NCc1ccc(-c2ncc(-c3ccc(CN4CCOCC4)cn3)c3[nH]nc(N)c23)cc1 [Example 67, N-(4-(3-amino-7-(5-(morpholinomethyl)pyridin-2-yl)-1H-pyrazolo[4,3-c]pyridin-4-yl)benzyl)-5-fluoro-2-methoxybenzamide] | 0.005 to 0.05 | 0.05 to 0.5 | 0.005 to 0.05 |
